# Assay results reported in patent EP2607478A1, “Phenanthroline treated MSC” (Universiteit Twente, priority 2011, dated 2013).
# Test system: MSCs
# Assay: Whole genome expression analysis (Illumina microarray) of treated MSCs
# Type: cell-based, Human
# Experimental: MSCs were seeded in T25 flasks at 5000 cells/cm^2 and allowed to attach overnight in proliferation medium. […] After 48 hours, RNA was isolated as described above. From 500 ng of RNA, cRNA was synthesized using the Illumina TotalPrep RNA amplification Kit (Ambion), according to the manufacturer's protocol and the quality of RNA and cRNA was verified on a Bioanalyzer 2100 (Agilent). Microarrays were performed using Illumina HT-12 v4 expression Beadchips, according to the manufacturer's protocol. Briefly, 750 ng of cRNA was hybridized on the array overnight after which the array was washed and blocked. Then, by addition of streptavidin Cy-3 a fluorescent signal was developed. Arrays were scanned on an Illumina iScan reader and raw intensity values were background corrected in GenomeStudio (Illumina). Further data processing and statistical testing were performed with R and Bioconductor statistical software (www.bioconductor.org), using package lumi. Raw intensity values were transformed using variance stabilization and a quantile normalization was performed. A linear modelling approach with empirical Bayesian methods, as implemented in Limma package (54), was applied for differential expression analysis of the resulting probe-level expression values. A gene list, containing only those genes with an absolute 1.5-fold change between different treatments, was uploaded to Ingenuity Pathway Analysis (IPA) software and used for core analysis. Pathways or networks with a p-value of 0.05 were considered statistically significant.
structure (smiles),measurement,setting,value
"CC(=O)N(O)CCCCCNC(=O)CCC(=O)N(O)CCCCCNC(=O)CCC(=O)N(O)CCCCCN [DFO, reference compound]",interleukin-8 (Il-8) gene expression,"MSCs treated for two days, 150 µM DFO or 200 µM PHE",did not affect this gene at all
same,"expression of HRE-containing genes (metabolism, cell growth and survival, endothelial genes)","MSCs treated for two days, 150 µM DFO or 200 µM PHE, relative to basic medium",increased expression
same,logFC(D142_ DFO - D142_BAS) NTN4,"ProbeID ILMN 2113490, DFO versus Bas","2,23"
same,logFC(D142_ DFO - D142_BAS) HIST1H2BD,"ProbeID ILMN_1651496, DFO versus Bas","3,33"
same,logFC(D142_ DFO - D142_BAS) PFKFB4,"ProbeID ILMN_1653292, DFO versus Bas","3,53"
same,logFC(D142_ DFO - D142_BAS) FZD2,"ProbeID ILMN_1653711, DFO versus Bas","-2,10"
same,logFC(D142_ DFO - D142_BAS),"ProbeID ILMN_1655796, DFO versus Bas","2,46"
same,logFC(D142_ DFO - D142_BAS) PLAU,"ProbeID ILMN_1656057, DFO versus Bas","-2,69"
same,logFC(D142_ DFO - D142_BAS) C1orf198,"ProbeID ILMN_1657683, DFO versus Bas","-2,30"
same,logFC(D142_ DFO - D142_BAS) KRTAP2-1,"ProbeID ILMN_1658448, DFO versus Bas","2,71"
same,logFC(D142_ DFO - D142_BAS) SLC2A1,"ProbeID ILMN_1659027, DFO versus Bas","3,46"
same,logFC(D142_ DFO - D142_BAS) HIST2H2AA3,"ProbeID ILMN_1659047, DFO versus Bas","2,07"
same,logFC(D142_ DFO - D142_BAS) C7orf68,"ProbeID ILMN_1659990, DFO versus Bas","3,04"
same,logFC(D142_ DFO - D142_BAS) LOC728285,"ProbeID ILMN_1660067, DFO versus Bas","2,89"
same,logFC(D142_ DFO - D142_BAS) PFKFB3,"ProbeID ILMN_1660847, DFO versus Bas","2,48"
same,logFC(D142_ DFO - D142_BAS) DDIT4,"ProbeID ILMN_1661599, DFO versus Bas","4,37"
same,logFC(D142_ DFO - D142_BAS) CDC20,"ProbeID ILMN_1663390, DFO versus Bas","-3,40"
same,logFC(D142_ DFO - D142_BAS) MGC87042,"ProbeID ILMN_1663575, DFO versus Bas","-2,17"
same,logFC(D142_ DFO - D142_BAS) PPP1R14C,"ProbeID ILMN_1664855, DFO versus Bas","2,96"
same,logFC(D142_ DFO - D142_BAS) ERRFI1,"ProbeID ILMN_1665510, DFO versus Bas","2,53"
same,logFC(D142_ DFO - D142_BAS) C1orf24,"ProbeID ILMN_1667966, DFO versus Bas","2,70"
same,logFC(D142_ DFO - D142_BAS) PPM1D,"ProbeID ILMN_1670875, DFO versus Bas","2,06"
same,logFC(D142_ DFO - D142_BAS) ACTA2,"ProbeID ILMN_1671703, DFO versus Bas","-2,61"
same,logFC(D142_ DFO - D142_BAS) JAM2,"ProbeID ILMN_1672350, DFO versus Bas","2,05"
same,logFC(D142_ DFO - D142_BAS) TFRC,"ProbeID ILMN_1674243, DFO versus Bas","2,31"
same,logFC(D142_ DFO - D142_BAS) MTHFD2,"ProbeID ILMN_1674706, DFO versus Bas","2,79"
same,logFC(D142_ DFO - D142_BAS) MT3,"ProbeID ILMN_1675947, DFO versus Bas","3,00"
same,logFC(D142_ DFO - D142_BAS) DDIT3,"ProbeID ILMN_1676984, DFO versus Bas","3,92"
same,logFC(D142_ DFO - D142_BAS) CHN1,"ProbeID ILMN_1678493, DFO versus Bas","-2,71"
same,logFC(D142_ DFO - D142_BAS) SLC3A2,"ProbeID ILMN_1679041, DFO versus Bas","2,26"
same,logFC(D142_ DFO - D142_BAS) CLK1,"ProbeID ILMN_1679727, DFO versus Bas","2,03"
same,logFC(D142_ DFO - D142_BAS) MAFF,"ProbeID ILMN_1680139, DFO versus Bas","2,48"
same,logFC(D142_ DFO - D142_BAS) GPRC5A,"ProbeID ILMN_1682599, DFO versus Bas","2,35"
same,logFC(D142_ DFO - D142_BAS) IER3,"ProbeID ILMN_1682717, DFO versus Bas","2,14"
same,logFC(D142_ DFO - D142_BAS) RRAD,"ProbeID ILMN_1683179, DFO versus Bas","2,83"
same,logFC(D142_ DFO - D142_BAS) GPT2,"ProbeID ILMN_1684158, DFO versus Bas","2,16"
same,logFC(D142_ DFO - D142_BAS) INHBB,"ProbeID ILMN_1685714, DFO versus Bas","2,06"
same,logFC(D142_ DFO - D142_BAS) TOP2A,"ProbeID ILMN_1686097, DFO versus Bas","-2,19"
same,logFC(D142_ DFO - D142_BAS) COLEC12,"ProbeID ILMN_1689088, DFO versus Bas","-3,20"
same,logFC(D142_ DFO - D142_BAS) CXCL12,"ProbeID ILMN_1689111, DFO versus Bas","-2,92"
same,logFC(D142_ DFO - D142_BAS) PDLIM7,"ProbeID ILMN_1690125, DFO versus Bas","-2,43"
same,logFC(D142_ DFO - D142_BAS) CRABP2,"ProbeID ILMN_1690170, DFO versus Bas","-2,06"
same,logFC(D142_ DFO - D142_BAS) STC2,"ProbeID ILMN_1691884, DFO versus Bas","3,54"
same,logFC(D142_ DFO - D142_BAS) PSAT1,"ProbeID ILMN_1692938, DFO versus Bas","3,93"
same,logFC(D142_ DFO - D142_BAS) P4HA1,"ProbeID ILMN_1693334, DFO versus Bas","3,24"
same,logFC(D142_ DFO - D142_BAS) GADD45A,"ProbeID ILMN_1694075, DFO versus Bas","2,63"
same,logFC(D142_ DFO - D142_BAS) KIF20A,"ProbeID ILMN_1695658, DFO versus Bas","-2,76"
same,logFC(D142_ DFO - D142_BAS) DDIT4L,"ProbeID ILMN_1696537, DFO versus Bas","-2,14"
same,logFC(D142_ DFO - D142_BAS) TNFRSF10B,"ProbeID ILMN_1699265, DFO versus Bas","2,74"
